US20220016241A1, “COMPOSITIONS AND METHODS FOR REDUCING ANTIGEN-SPECIFIC IMMUNOGENICITY” (The Research Foundation for The State University of New York, priority 2013, published 2022)

Key:
[1] = test system: anti-GAA antibody titers; assay: Effect of OPLS on immunogenicity of GAA protein; assay type: in vivo, mice; conditions: 5 mg dose with 1 μg GAA, 4 weekly s.c., 2 week rest
Method: Materials and Methods: GAA Source: Full length recombinant rhGAA was produced in Human Kidney Embryo Cells for our use by Creative Biomart (Shirley, N.Y.); OPLS Source: Sigma-Aldrich (St. Louis, Mo.). n=8 animals/group were immunized with 4 weekly s.c. injections of 1 μg of GAA in 100 μl of either sterile TRIS for the free group or in 5 mg OPLS in sterile TRIS for the OPLS-GAA group. A group of 8 mice will receive the same dose of CBrhGAA in 5 mg O-phospho-D-serine (OPDS) solution as a negative control. After a 2 week rest period, a blood sample from the saphenous vein will be collected. Samples were stored at −80° C. until analysis. These samples were then analyzed for anti-GAA Ab titers. Anti-GAA antibody titers were measured as follows: ELISA plate (maxisorp, NUNC) was coated with 50 μl of 5 μg/ml of sterile rhGAA in sodium carbonate-bicarbonate buffer pH =9.6. The plate was incubated overnight at 4° C. The plate was washed six times with PBS containing 0.05% Tween 20 (PBS-T, 250 μl/well) using an automated plate washer. The plate was blocked with PBS containing 1% BSA (300 μl/well) as the block buffer for 2 hr at 37° C. […] The reaction was stopped with 2 N sulfuric acid and read immediately at 450 nm using a micro-plate reader. The titer values are quantitated using a statistical endpoint method as described by Frey et al. Control plasma samples were run on each plate. […]

[2] = test system: Humira; assay: Binding of OPLS to Humira
Method: The binding of OPLS to several therapeutic proteins was evaluated using fluorescence spectroscopy (FIG. 2). The fluorescence emission reduced as the concentration of OPLS was increased. The fluorescence intensity changes were highest for FVIII compared to GAA and OVA. […] The high affinity binding for FVIII is consistent with the existence of a putative lipid binding domain.
As shown in FIG. 6(d), anti-Humira antibody titers were lower in mice that were co-administered OPLS (5 mg dose) and Humira® ([…]) via the s.c. route than in those administered Humira® alone ([…]) (also via the s.c. route) after 4 weekly injection followed by a 2 weeks washout period. Titer values were obtained by classical sandwitch ELISA were the plates was coated with Humira before incubation with dilutions with plasma samples, anti-Humira antibodies were detected with a rat anti-mouse-HRP conjugated antibodies. […] It is highly doubtful that the weak binding seen here is “shielding” an immunologic epitope.

[3] = test system: anti-Ova antibody titers; assay: Effect of OPLS on immunogenicity of ovalbumin after SC administration; assay type: in vivo, SW mice; conditions: 5 mg OPLS with 1 μg Ova s.c.
Method: Methods: 14 SW mice between 6 and 8 weeks of age were divided into 2 groups: group one received 1 μg OVA SC in the abdominal region. Group two received 1 μg OVA/5 mg OPLS SC in the abdominal region. This treatment was given one day 1, 8, 10 and 12. Three days after the last injection the animals were sacrificed. Blood was centrifuged at 7500 rpm for 5 min at 4° C. Plasma was then removed and stored at -80° C. until analysis Titers values were obtained using an anti-Ova IgG […] analysis kit as per the manufacturers instruction (alphadiagnostic international). Statistics was done on the arithmetic mean of the log transformed data, graphs are reported as geometric means. Non-responders were given the value of the plate specific factor for uniformity.

[4] = test system: TGF-β; assay: Cytokine profile of BMDCs in vitro, TGF-β ELISA; assay type: cell-based, HA mice; conditions: 1 μg/ml FVIII with 0-50 mM OPLS, 48 hours, n=4
Method: Generation of bone marrow derived dendritic cells (BMDC): Bone marrow was isolated from 6 to 8 week old naïve HA. Briefly, bone marrow was cultured in RPMI media supplemented with […] (low endotoxin), 2-mercaptoethanol, Pen/Strep and […] GMCSF. Media was changed on days 3, 6 and 8 of culture and DCs were used on day 9. BMDC are then harvested and used as needed. To verify the differentiation of bone marrow cells into DCs, CD11c surface expression was confirmed by flow cytometry using anti-CD11c-FITC antibody with appropriate isotope controls.
Effects of OPLS on cytokine profile of BMDCs in vitro: The effects of OPLS on cytokine secretion by dendritic cells were investigated. On day 9 BMDCs, generated as above, were treated with FVIII as an antigen in the presence of increasing dose of OPLS. Changes in production of pro-inflammatory cytokines TNF-α and IL12p70 as well as the regulatory cytokine TGF-β were monitored as a function of dose. BMDCs were exposed to 1 μg/ml FVIII with increasing dose of OPLS (0, 0.5, 1, 10, 25, 50 mM). 1 M stock of OPLS was prepared by adding the appropriate amount of OPLS directly to RPMI media, and pH was adjusted using sterile 3N and 1N NaOH. […] TGF-β, TNF-α and IL-12p70 concentrations were determined using standard ELISA (R&D System Inc. Minneapolis, Minn., USA or Invitrogen […], Calif.).

[5] = test system: lymphocyte subsets; assay: Lymphocyte subsets in peripheral blood after 21 daily doses of OPLS; assay type: in vivo, rhesus macaques; conditions: 21 daily doses of 25 mg/kg
Method: FIG. 23. Effect of 21 daily doses of 25 mg/kg OPLS on lymphocyte subsets in peripheral blood of rhesus macaques. Samples were drawn from the animals at baseline (day 0), at an intermediate time point during treatment (day 8) and 1 day after the termination of dosing (day 22) and immunophenotyped using flow cytometry. […] (*p value<0.05).

[6] = target: T1, GAA peptide (Homo sapiens, UniProt P10253); assay: Binding of OPLS to GAA peptide by ultraviolet/visible spectroscopy
T1 construct: purchased American Peptide Company (Sunnyvale, Calif.); host or cells: chemical synthesis
Source text: Instead of using fluorescence to detect binding, ultraviolet/visible spectroscopy was used.

[7] = PK of FVIII in the presence and absence of OPLS; assay type: in vivo, HA mice

## N[C@@H](COP(=O)(O)O)C(=O)O [OPLS, O-Phospho-L-Serine]
[1]
  Anti-GAA antibody titers vs GAA alone: lower
[2]
  Binding between OPLS and Humira: weak binding
[3]
  Anti-Ova antibody titers vs Ova alone: lower
[4]
  TGF-β production by BMDC: dose dependent increase
[5]
  % of B-cells: transient increase
[5]; days 0, 8, 22
  Lymphocyte subsets, baseline vs post treatment: no significant change
[6]
  Binding of GAA peptide to OPLS: did not bind
[7]; iv, FIG. 4
  FVIII plasma exposure after intravenous co-administration: slight increase
[7]; sc co-administration vs biotherapeutic alone
  Bioavailability after subcutaneous co-administration: improves
[7]; sc co-administration vs biotherapeutic alone, FIGS. 5A and 5B
  Lymphatic uptake from the subcutaneous space: improves
